Data set [1] deals with P388. Kind of data set: Antitumor activity against mouse P388 cells xenografted in mouse assessed as median survival time at 0.4 mg/kg, ip relative to control. It is filed as functional. The conditions noted are these: route intraperitoneal.
The subject of data set [2] is HeLa. Kind of data set: Cytotoxicity against human HeLa cells assessed as colony formation at 6.2 ng/ml relative to control. It is filed as functional.
For data set [3], the system named is Mus musculus. Kind of data set: Toxicity in mouse P388 cells xenografted mouse assessed as induction of death at 1.5 mg/kg, ip. It is filed as organism-based. Details: dose 1.5 mg/kg, route intraperitoneal. The conditions noted are these: in vivo.
For data set [4], the system named is Mus musculus. Kind of data set: Toxicity in mouse P388 cells xenografted mouse assessed as induction of death at 0.6 mg/kg, ip. It is filed as organism-based. Details: dose 0.6 mg/kg, route intraperitoneal. The conditions noted are these: in vivo.
Data set [5] has as its system P388. As to the kind of experiment: Antitumor activity against mouse P388 cells xenografted in mouse assessed as median survival time at 1 mg/kg, ip relative to control. It is filed as functional. The conditions noted are these: route intraperitoneal.
Data set [6] has as its system Mus musculus. Kind of data set: Toxicity in mouse P388 cells xenografted mouse assessed as induction of death at 0.4 mg/kg, ip. The conditions noted are these: in vivo. Details: dose 0.4 mg/kg, route intraperitoneal. It is filed as organism-based.
For data set [7], the system named is P388. Kind of data set: Cytotoxicity against mouse P388 cells. It is filed as functional. The conditions noted are these: read-out: ID50 (the source's name).
Data set [8] deals with HeLa. As to the kind of experiment: Cytotoxicity against human HeLa cells assessed as inhibition of colony formation relative to control. It is filed as functional. The conditions noted are these: read-out: ID50 (the source's name).
The subject of data set [9] is Micrococcus luteus. As to the kind of experiment: Antimicrobial activity against Sarcina lutea ATCC 9341 by tube dilution method. It is filed as functional.
Data set [10] concerns P388. Kind of data set: Cytotoxicity against doxorubicin resistant mouse P388 cells. It is filed as functional. The conditions noted are these: read-out: ID50 (the source's name).
Data set [11] deals with HeLa. As to the kind of experiment: Cytotoxicity against human HeLa cells assessed as colony formation at 3.1 ng/ml relative to control. It is filed as functional.
Data set [12] has as its system Staphylococcus aureus. As to the kind of experiment: Antimicrobial activity against Staphylococcus aureus 209 P by tube dilution method. It is filed as functional.
The test system of data set [13] is Staphylococcus aureus. As to the kind of experiment: Antimicrobial activity against drug resistant Staphylococcus aureus isolate 153 producing beta lactamase by tube dilution method. It is filed as functional.
Data set [14] concerns Escherichia coli. Kind of data set: Antimicrobial activity against Escherichia coli B ATCC 11303 by tube dilution method. It is filed as functional.
The subject of data set [15] is P388. As to the kind of experiment: Antitumor activity against mouse P388 cells xenografted in mouse assessed as median survival time at 0.6 mg/kg, ip relative to control. It is filed as functional. The conditions noted are these: route intraperitoneal.
In data set [16] the test system is Bacillus subtilis. Kind of data set: Antimicrobial activity against Bacillus subtilis ATCC 6633 by tube dilution method. It is filed as functional.
In data set [17] the test system is HeLa. As to the kind of experiment: Cytotoxicity against human HeLa cells assessed as colony formation at 1.5 ng/ml relative to control. It is filed as functional.
Data set [18] relates to P388. As to the kind of experiment: Antitumor activity against mouse P388 cells xenografted in mouse assessed as median survival time at 1.5 mg/kg, ip relative to control. It is filed as functional. The conditions noted are these: route intraperitoneal.
Data set [19] concerns HeLa. Kind of data set: Cytotoxicity against human HeLa cells assessed as colony formation at 12.5 ng/ml relative to control. It is filed as functional.
The test system of data set [20] is P388. As to the kind of experiment: Antitumor activity against mouse P388 cells xenografted in mouse assessed as median survival time at 6.6 mg/kg, ip relative to control. The conditions noted are these: route intraperitoneal. It is filed as functional.
Data set [21] deals with P388. As to the kind of experiment: Antitumor activity against mouse P388 cells xenografted in mouse assessed as median survival time at 4.4 mg/kg, ip relative to control. It is filed as functional. The conditions noted are these: route intraperitoneal.
Data set [22] relates to P388. Kind of data set: Antitumor activity against mouse P388 cells xenografted in mouse assessed as median survival time at 2.9 mg/kg, ip relative to control. It is filed as functional. The conditions noted are these: route intraperitoneal.
The test system of data set [23] is Mus musculus. As to the kind of experiment: Toxicity in mouse P388 cells xenografted mouse assessed as induction of death at 4.4 mg/kg, ip. It is filed as organism-based. Also on record: dose 4.4 mg/kg, route intraperitoneal. The conditions noted are these: in vivo.
The subject of data set [24] is HeLa. Kind of data set: Cytotoxicity against human HeLa cells assessed as inhibition of colony formation at 25 ng/ml relative to control. It is filed as functional. Also on record: scale not given: the % may be the effect or the level left.
Data set [25] deals with Mus musculus. As to the kind of experiment: Toxicity in mouse P388 cells xenografted mouse assessed as induction of death at 2.9 mg/kg, ip. It is filed as organism-based. Also on record: dose 2.9 mg/kg, route intraperitoneal. The conditions noted are these: in vivo.

Values after ≈ are worked out from the molar mass of the structure shown.

One may read the MIC as the least concentration at which growth counts as inhibited. For `CC[C@]1(O)Cc2c(O)c3c(c(O)c2[C@@H](O[C@H]2C[C@H](N)[C@H](O)[C@H](C)O2)C1)C(=O)c1c(O)cccc1C3=O`, the Activity in data set [1] is on record as 136%; in data set [2], 55%; in data set [3], “Toxic”; in data set [4], “Non-toxic”; in data set [5], 163%; in data set [6], “Non-toxic”. Besides, the Activity in data set [11] is given as 90%; in data set [15], 150%; in data set [17], 126%; in data set [18] it was 109%; in data set [19], 36%. Moreover, the results for the IC50 in data set [7], in data set [8] and in data set [10] were 0.0015 mg/L (≈ 0.003 µM), 0.0062 mg/L (≈ 0.0124 µM) and 0.004 mg/L (≈ 0.00801 µM), respectively. The MIC came out at 1.56 mg/L (≈ 3.12 µM) in data set [9]; 12.5 mg/L (≈ 25 µM) in [12]; 25 mg/L (≈ 50 µM) in [13]; 3.12 mg/L (≈ 6.25 µM) in data set [14]; 6.25 mg/L (≈ 12.5 µM) in data set [16].
Take `CC(=O)[C@]1(O)Cc2c(O)c3c(c(O)c2[C@@H](O[C@H]2C[C@H](N)[C@H](O)[C@H](C)O2)C1)C(=O)c1c(O)cccc1C3=O` [CARUBICIN]: the Activity in data set [2] is on record as 3%; in data set [11], 33%; in data set [17], 120%; in [19], 0%. Also, the IC50 in data set [7] came to 0.007 mg/L (≈ 0.0136 µM); in data set [8], 0.0031 mg/L (≈ 0.00604 µM); in [10], 0.004 mg/L (≈ 0.00779 µM).
In general, T/C refers to the ratio of treated to control. Take `COc1cccc2c1C(=O)c1c(O)c3c(c(O)c1C2=O)C[C@@](O)(C(C)=O)C[C@@H]3O[C@H]1C[C@H](N)[C@H](O)[C@H](C)O1` [DAUNORUBICIN]: the T/C was found to be 168% in [20], 190% in data set [21] and 177% in data set [22]. Also, the Activity is 123% in data set [2]; “Non-toxic” in data set [23]; 13% in data set [24]; “Non-toxic” in data set [25]; 48% in data set [19]. Further, the values for the IC50 in [7], in [8] and in [10] were 0.0095 mg/L (≈ 0.018 µM), 0.0125 mg/L (≈ 0.0237 µM) and 0.75 mg/L (≈ 1.42 µM), respectively.

The values are drawn from ChEMBL document CHEMBL1151653, “13-Deoxycarminomycin, a new biosynthetic anthracycline” (J Nat Prod, 1985).
